Results reported in ChEMBL document CHEMBL5233249, “Recent advancements in the development of heterocyclic anti-inflammatory agents” (Eur J Med Chem, 2020).
Each block holds one compound with its values, some of them ahead of it.

Experiments:
Rattus norvegicus [1] = assay: Anti-inflammatory activity in Carrageenan-induced paw edema in Wistar albino rat assessed as inhibition of edema measured after 5 hr relative to control; format: functional; design: scale not given: the % may be the effect or the level left
Rattus norvegicus [2] = assay: Anti-inflammatory activity in Carrageenan-induced paw edema in Wistar albino rat assessed as inhibition of edema measured after 3 hr relative to control; format: functional; design: scale not given: the % may be the effect or the level left
[3] = target: T1, Prostaglandin G/H synthase 2 (Homo sapiens, UniProt P35354); assay: Inhibition of human COX-2 assessed as by fluorescence based microplate reader assay
T1 sequence (P35354 whole entry): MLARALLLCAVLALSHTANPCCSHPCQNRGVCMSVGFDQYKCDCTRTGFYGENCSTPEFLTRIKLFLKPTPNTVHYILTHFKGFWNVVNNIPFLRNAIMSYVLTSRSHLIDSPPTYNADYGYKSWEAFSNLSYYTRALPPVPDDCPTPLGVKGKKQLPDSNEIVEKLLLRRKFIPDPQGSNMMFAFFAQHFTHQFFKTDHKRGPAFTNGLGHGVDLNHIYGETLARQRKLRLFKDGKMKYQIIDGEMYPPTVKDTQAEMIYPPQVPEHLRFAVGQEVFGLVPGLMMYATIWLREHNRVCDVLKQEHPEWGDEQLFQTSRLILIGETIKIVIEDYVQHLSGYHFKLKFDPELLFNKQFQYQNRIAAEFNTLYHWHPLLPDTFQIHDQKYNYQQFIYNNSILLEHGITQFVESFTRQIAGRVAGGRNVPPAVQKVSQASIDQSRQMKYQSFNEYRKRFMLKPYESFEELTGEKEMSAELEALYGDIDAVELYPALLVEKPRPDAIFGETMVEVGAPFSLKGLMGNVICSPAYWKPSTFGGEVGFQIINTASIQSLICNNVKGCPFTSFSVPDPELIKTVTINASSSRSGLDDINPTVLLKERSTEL

Rattus norvegicus [4] = assay: Anti-inflammatory activity in Carrageenan-induced paw edema in Wistar albino rat assessed as inhibition of edema measured after 1 hr relative to control; format: functional; design: scale not given: the % may be the effect or the level left
[5] = target: Prostaglandin G/H synthase 1 (Homo sapiens, UniProt P23219); assay: Inhibition of COX-1 (unknown origin) at 40 uM relative to control
Chain of Prostaglandin G/H synthase 1 (Homo sapiens, UniProt P23219) (P23219 whole entry): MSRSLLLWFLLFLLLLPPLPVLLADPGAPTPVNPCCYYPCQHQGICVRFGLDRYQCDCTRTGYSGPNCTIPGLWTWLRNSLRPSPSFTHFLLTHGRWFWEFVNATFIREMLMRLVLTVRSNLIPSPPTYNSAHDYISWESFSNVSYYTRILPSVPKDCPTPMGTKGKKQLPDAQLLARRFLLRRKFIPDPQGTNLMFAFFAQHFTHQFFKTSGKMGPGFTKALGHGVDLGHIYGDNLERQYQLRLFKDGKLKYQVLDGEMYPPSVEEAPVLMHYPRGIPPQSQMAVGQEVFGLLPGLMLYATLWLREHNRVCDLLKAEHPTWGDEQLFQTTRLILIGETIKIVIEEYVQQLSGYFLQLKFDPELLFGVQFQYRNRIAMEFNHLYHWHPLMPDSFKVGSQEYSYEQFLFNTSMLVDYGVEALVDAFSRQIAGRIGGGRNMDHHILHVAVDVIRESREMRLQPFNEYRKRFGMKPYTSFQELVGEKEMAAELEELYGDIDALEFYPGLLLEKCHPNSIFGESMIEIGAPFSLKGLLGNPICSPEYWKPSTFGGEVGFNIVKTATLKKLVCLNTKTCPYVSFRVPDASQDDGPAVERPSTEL

Mus musculus [6] = assay: Anti-inflammatory activity in Carrageenan-induced paw edema in PO dosed mouse at 100 mg/kg assessed as inhibition of edema measured after 3 hr relative to control; format: functional; design: scale not given: the % may be the effect or the level left
Rattus norvegicus [7] = assay: Anti-inflammatory activity in Carrageenan-induced rat paw edema in Wistar rat assessed as increase in paw edema volume at 2 hr relative to control; format: functional
[8] = target: T2, Prostaglandin G/H synthase 1 (Ovis aries, UniProt P05979); assay: Inhibition of ovine COX-1 by EIA method
T2 sequence (P05979 whole entry): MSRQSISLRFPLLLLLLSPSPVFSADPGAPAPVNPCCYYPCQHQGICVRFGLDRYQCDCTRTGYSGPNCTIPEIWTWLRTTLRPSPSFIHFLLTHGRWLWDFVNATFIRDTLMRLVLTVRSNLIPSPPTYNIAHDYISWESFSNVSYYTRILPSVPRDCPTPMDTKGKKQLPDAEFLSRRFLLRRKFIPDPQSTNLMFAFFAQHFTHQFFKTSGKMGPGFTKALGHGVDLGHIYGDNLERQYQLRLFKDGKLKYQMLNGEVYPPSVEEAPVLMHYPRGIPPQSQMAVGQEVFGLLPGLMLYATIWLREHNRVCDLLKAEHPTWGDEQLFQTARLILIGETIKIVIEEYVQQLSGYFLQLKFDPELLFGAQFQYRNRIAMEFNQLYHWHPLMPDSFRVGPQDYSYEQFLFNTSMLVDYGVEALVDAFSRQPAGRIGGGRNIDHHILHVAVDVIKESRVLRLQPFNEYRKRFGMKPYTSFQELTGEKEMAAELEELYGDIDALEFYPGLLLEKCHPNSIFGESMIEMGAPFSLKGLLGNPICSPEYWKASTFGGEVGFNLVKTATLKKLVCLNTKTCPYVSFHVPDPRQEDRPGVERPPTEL

Rattus norvegicus [9] = assay: Anti-inflammatory activity in Carrageenan-induced rat paw edema in Wistar rat assessed as increase in paw edema volume at 1 hr relative to control; format: functional
Rattus norvegicus [10] = assay: Anti-inflammatory activity in Carrageenan-induced rat paw edema in Wistar rat assessed as increase in paw edema volume relative to control; format: functional
Rattus norvegicus [11] = assay: Anti-inflammatory activity in Carrageenan-induced rat paw edema in Wistar rat assessed as increase in paw edema volume at 2 hr; format: functional
Rattus norvegicus [12] = assay: Anti-inflammatory activity in Carrageenan-induced rat paw edema in Wistar rat assessed as increase in paw edema volume (reference value: 1.66 +/- 0.01); format: functional
Rattus norvegicus [13] = assay: Anti-inflammatory activity in Carrageenan-induced paw edema in Wistar rat assessed as inhibition of paw edema; format: functional
Rattus norvegicus [14] = assay: Anti-inflammatory activity in Carrageenan-induced rat paw edema in Wistar rat assessed as increase in paw edema volume at 1 hr; format: functional
Rattus norvegicus [15] = assay: Anti-inflammatory activity in Carrageenan-induced rat paw edema in Wistar rat assessed as increase in paw edema volume at 4 hr; format: functional
Rattus norvegicus [16] = assay: Anti-inflammatory activity in Carrageenan-induced paw edema in Swiss albino rat assessed as inhibition relative to control; format: functional
Rattus norvegicus [17] = assay: Anti-inflammatory activity in Carrageenan-induced rat paw edema in Wistar rat assessed as increase in paw edema volume at 4 hr relative to control; format: functional
Mus musculus [18] = assay: Anti-inflammatory activity against Carrageenan-induced paw edema in mouse model assessed as inhibition of edema at 100 mg/kg measured after 4 hrs relative to control; format: functional; design: scale not given: the % may be the effect or the level left
Rattus norvegicus [19] = assay: Ulcerogenic activity in Swiss albino Wistar rat assessed as ulcer lesion score at 100 mg/kg, po; format: functional
Rattus norvegicus [20] = assay: Anti-inflammatory activity in Carrageenan-induced rat paw edema in Wistar rat assessed as reduction in inhibition of edema measured after 4 hrs relative to control; format: functional; design: scale not given: the % may be the effect or the level left
[21] = Inhibition of MAPK p38 (unknown origin); design: species or system Homo sapiens
[22] = Anti-inflammatory activity assessed as protein denaturation using bovine serum albumin relative to control; format: functional
Mus musculus [23] = assay: Anti-inflammatory activity in Carrageenan-induced paw edema in […] mouse model assessed as inhibition of edema at 200 mg/kg, po relative to control; format: functional; design: scale not given: the % may be the effect or the level left
[24] = target: T3, Polyunsaturated fatty acid 5-lipoxygenase (Homo sapiens, UniProt P09917); assay: Inhibition of 5-LOX (unknown origin) after 5 mins by colorimetric method
T3 sequence (P09917 whole entry): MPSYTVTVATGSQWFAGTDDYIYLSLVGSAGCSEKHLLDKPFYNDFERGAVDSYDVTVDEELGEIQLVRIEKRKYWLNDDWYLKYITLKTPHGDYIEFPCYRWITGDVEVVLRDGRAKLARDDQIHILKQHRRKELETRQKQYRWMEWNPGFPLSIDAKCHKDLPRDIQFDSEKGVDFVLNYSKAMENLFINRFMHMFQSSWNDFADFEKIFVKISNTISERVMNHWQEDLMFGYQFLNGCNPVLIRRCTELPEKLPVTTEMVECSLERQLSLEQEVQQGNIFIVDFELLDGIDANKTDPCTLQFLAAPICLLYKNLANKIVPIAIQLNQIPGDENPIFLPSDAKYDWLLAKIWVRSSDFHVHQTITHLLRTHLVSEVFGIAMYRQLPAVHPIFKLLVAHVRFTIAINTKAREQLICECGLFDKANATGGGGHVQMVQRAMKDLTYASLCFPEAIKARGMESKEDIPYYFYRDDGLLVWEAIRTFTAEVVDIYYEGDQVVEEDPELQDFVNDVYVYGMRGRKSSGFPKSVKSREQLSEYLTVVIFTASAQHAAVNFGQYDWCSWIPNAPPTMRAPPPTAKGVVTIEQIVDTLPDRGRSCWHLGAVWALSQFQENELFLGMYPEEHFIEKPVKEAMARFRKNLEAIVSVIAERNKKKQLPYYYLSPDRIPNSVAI

RAW264.7 = assay: Anti-inflammatory activity in mouse RAW264.7 cells assessed as LPS-induced reduction in NO production measured after 24 hrs; format: functional, cell-based; details: RAW264.7, 24 h
Rattus norvegicus [25] = assay: Anti-inflammatory activity against Carrageenan-induced paw edema in Wistar albino rat ulcerogenic activity assessed as reduction in severity index; format: functional
Rattus norvegicus [26] = assay: Anti-inflammatory activity in Carrageenan-induced paw edema in Wistar albino rat assessed as reduction in paw edema measured after 2 hr relative to control; format: functional; design: scale not given: the % may be the effect or the level left
Rattus norvegicus [27] = assay: Anti-inflammatory activity in Carrageenan-induced paw edema in Wistar albino rat assessed as reduction in paw edema measured after 1 hr relative to control; format: functional; design: scale not given: the % may be the effect or the level left
Rattus norvegicus [28] = assay: Anti-inflammatory activity in Carrageenan-induced paw edema in Wistar albino rat assessed as reduction in paw edema measured after 3 hr relative to control; format: functional; design: scale not given: the % may be the effect or the level left
Rattus norvegicus [29] = assay: Anti-inflammatory activity in Carrageenan-induced paw edema in PO dosed rat model at 10 mg/kg assessed as inhibition of paw edema measured after 4 hrs relative to control; format: functional
Rattus norvegicus [30] = assay: Anti-inflammatory activity in Carrageenan-induced paw edema in PO dosed rat model at 20 mg/kg assessed as inhibition of paw edema measured after 4 hrs relative to control; format: functional

- IC50 [3]: 160 nM
SMILES: CCOc1cc(C)nn1C(=O)CNc1ncnc2c1c(C)nn2-c1ccccc1
- Activity (Rattus norvegicus [1]): 90%
- Activity (Rattus norvegicus [2]): 94%
- Activity (Rattus norvegicus [4]): 82%

- IC50 [5]: 2500 nM
SMILES: COc1ccc(NCc2nc3ccccc3n2C(=O)c2ccccc2)cc1
- Activity (Mus musculus [6]): 40.3%

- IC50 [8]: 28400 nM
- inhibition [5]: 73.4%
SMILES: C[C@H](NC(=O)c1nc2c(cnn2-c2ccccc2)c(=O)[nH]1)c1ccccc1
- inhibition (INH) (Rattus norvegicus [7]): 65%
- inhibition (INH) (Rattus norvegicus [9]): 64%
- inhibition (INH) (Rattus norvegicus [10]): 64%
- Activity (Rattus norvegicus [11]): 1.69 mL
- Activity (Rattus norvegicus [12]): 1.05 mL
- ED50 (Rattus norvegicus [13]): 7.6 mg/kg
- Activity (Rattus norvegicus [14]): 1.5 mL
- Activity (Rattus norvegicus [15]): 2.01 mL
- inhibition (INH) (Rattus norvegicus [16]): 51%
- inhibition (INH) (Rattus norvegicus [17]): 64%

SMILES: O=C(NCn1c(-c2ccccc2Cl)nc2ccccc21)c1ccc(Cl)cc1
- Activity (Mus musculus [18]): 62.5%
- Activity (Rattus norvegicus [19]): 13.53 mm

- IC50 [21]: 38 nM
SMILES: COc1ccc(NC(=O)c2ccc(Nc3ncnc4c3cnn4-c3ccccc3)cc2)cc1
- Activity (Rattus norvegicus [20]): 76.35%
- Activity [22]: 80.2%

- IC50 [24]: 1920 nM
SMILES: Cc1ccc(N/N=C2\C(=N)N(c3ccc(S(N)(=O)=O)cc3)N=C2N)cc1
- Activity (Mus musculus [23]): 15%

- IC50 (RAW264.7): 6700 nM
SMILES: COc1ccc(C(=O)c2nc3ccccc3cc2-c2cc(OC)c(OC)c(OC)c2)cc1

SMILES: Clc1ccccc1-c1nnc(Cn2c(CN3CCOCC3)nc3ccccc32)o1
- Activity (Rattus norvegicus [25]): 0.28 mm
- Activity (Rattus norvegicus [26]): 67.12%
- Activity (Rattus norvegicus [27]): 38.54%
- Activity (Rattus norvegicus [28]): 74.17%

- IC50 [8]: 19500 nM
- inhibition [5]: 86%
SMILES: CCCOC(=O)c1nc2c(cnn2-c2ccccc2)c(=O)[nH]1
- inhibition (INH) (Rattus norvegicus [7]): 51%
- inhibition (INH) (Rattus norvegicus [9]): 40%
- inhibition (INH) (Rattus norvegicus [10]): 40%
- Activity (Rattus norvegicus [11]): 1.8 mL
- Activity (Rattus norvegicus [12]): 0.9 mL
- ED50 (Rattus norvegicus [13]): 8.3 mg/kg
- Activity (Rattus norvegicus [14]): 1.66 mL
- Activity (Rattus norvegicus [15]): 2.11 mL
- inhibition (INH) (Rattus norvegicus [16]): 36%
- inhibition (INH) (Rattus norvegicus [17]): 55%

SMILES: Cc1nn(-c2ccccc2)c2c1C(c1ccccc1Cl)N1C=CC=NC1=N2 (centres undefined)
- inhibition in vivo at 10 mg/kg (Rattus norvegicus [29]): 73%
- inhibition in vivo at 20 mg/kg (Rattus norvegicus [30]): 86%
